Assays:
duck salad = assay: Test B flood test duck salad; type: in vivo, Heteranthera limosa
Procedure, shortened: (§1)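 Each value is a visual injury score relative to controls, with 10 meaning complete control and 0 no effect. Evaluation took place twelve to sixteen days after the 2-leaf-stage plants were treated and kept in the greenhouse.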

giant foxtail = assay: Test B pre/postemergence giant foxtail; type: in vivo, Setaria faberii
Procedure, shortened: (§2)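 Test chemicals in a non-phytotoxic solvent mixture with surfactant were sprayed preemergence onto planted seeds and postemergence onto plants 2 to 18 cm tall (1- to 4-leaf stage). After twelve to sixteen days in a greenhouse, injury was visually rated against untreated controls from 0 (no effect) to 10 (complete control).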

bedstraw = assay: Test B pre/postemergence bedstraw; type: in vivo, Galium aparine
Procedure, shortened: as §2

soybean = assay: Test B pre/postemergence soybean; type: in vivo, Glycine max
Procedure, shortened: as §2

crabgrass = assay: Test B pre/postemergence crabgrass; type: in vivo, Digitaria sanguinalis
Procedure, shortened: as §2

velvetleaf = assay: Test B pre/postemergence velvetleaf; type: in vivo, Abutilon theophrasti
Procedure, shortened: as §2

morningglory = assay: Test B pre/postemergence morningglory; type: in vivo, Ipomoea hederacea
Procedure, shortened: as §2

sugar beet = assay: Test B pre/postemergence sugar beet; type: in vivo, Beta vulgaris
Procedure, shortened: as §2

wheat = assay: Test B pre/postemergence wheat; type: in vivo, Triticum aestivum
Procedure, shortened: as §2

smallflower flatsedge = assay: Test B flood test smallflower flatsedge; type: in vivo, Cyperus difformis
Procedure, shortened: as §1

surinam grass = assay: Test B pre/postemergence surinam grass; type: in vivo, Brachiaria decumbens
Procedure, shortened: as §2

purple nutsedge = assay: Test B pre/postemergence purple nutsedge; type: in vivo, Cyperus rotundus
Procedure, shortened: as §2

pigweed = assay: Test B pre/postemergence pigweed; type: in vivo, Amaranthus retroflexus
Procedure, shortened: as §2

corn = assay: Test B pre/postemergence corn; type: in vivo, Zea mays
Procedure, shortened: as §2

rape = assay: Test B pre/postemergence rape; type: in vivo, Brassica napus
Procedure, shortened: as §2

wild oat = assay: Test B pre/postemergence wild oat; type: in vivo, Avena fatua
Procedure, shortened: as §2

cocklebur = assay: Test B pre/postemergence cocklebur; type: in vivo, Xanthium strumarium
Procedure, shortened: as §2

bamyardgrass = assay: Test B flood test barnyardgrass; type: in vivo, Echinochloa crus-galli
Procedure, shortened: as §1

blackgrass = assay: Test B pre/postemergence blackgrass; type: in vivo, Alopecurus myosuroides
Procedure, shortened: as §2

rice = assay: Test B flood test rice; type: in vivo, Oryza sativa
Procedure, shortened: as §1

[1] = Rate 31 g/ha, Pre-emergence section (flood test species), scale 0 to 10
[2] = Rate 62 g/ha, flood test species, Pre-emergence, visual evaluation after twelve to sixteen days
[3] = Rate 125 g/ha, under heading Pre-emergence, flood test species, visual evaluation after twelve to sixteen days
[4] = Rate 250 g/ha, Pre-emergence (flood test species), scale 0 to 10, 0 is no effect, 10 is complete control
[5] = Postemergence, Rate 31 g/ha, visual rating, scale 0 to 10 (0 no effect, 10 complete control)
[6] = Postemergence, Rate 62 g/ha, scale 0 to 10, 0 is no effect, 10 is complete control
[7] = Postemergence, Rate 125 g/ha, scale of 0 to 10 where 0 is no effect and 10 is complete control
[8] = Preemergence, Rate 31 g/ha, visual rating, scale 0 to 10 (0 no effect, 10 complete control)
[9] = Preemergence, Rate 62 g/ha, scale 0 to 10 (0 no effect, 10 complete control)
[10] = Preemergence, Rate 125 g/ha, scale of 0 to 10 where 0 is no effect and 10 is complete control
[11] = Preemergence, Rate 250 g/ha, scale 0 to 10 (0 no effect, 10 complete control)

## CCOC(=O)CC(C(=O)OCC)n1c(=O)on(C(=O)N(c2ccccc2)C(C)C)c1=O (stereo not shown) [Compound 614]
Duck salad; [1]
  Ducksalad plant response rating: 0
Duck salad; [2]
  Plant response rating, Ducksalad (0 to 10 scale, 0 is no effect, 10 is complete control): 0
Duck salad; [3]
  Ducksalad plant response rating (0 to 10 scale, 0 is no effect, 10 is complete control): 0
Duck salad; [4]
  Ducksalad plant response rating: 0
Giant foxtail; [5]
  Giant foxtail plant response rating: 0
Giant foxtail; [6]
  Plant response rating, Giant foxtail: 0
Giant foxtail; [7]
  Plant response rating, Giant foxtail: 0
Giant foxtail; [8]
  Giant foxtail plant response rating: 0
Giant foxtail; [9]
  Giant foxtail plant response rating: 0
Giant foxtail; [10]
  Giant foxtail plant response rating: 4
Giant foxtail; [11]
  Plant response rating, Giant foxtail: 9
bedstraw; [7]
  Plant response rating, Bedstraw: 0
bedstraw; [8]
  Bedstraw plant response rating: 0
bedstraw; [9]
  Bedstraw plant response rating: 0
bedstraw; [11]
  Plant response rating, Bedstraw: 0
soybean; [5]
  Soybean plant response rating: 2
soybean; [6]
  Plant response rating, Soybean: 3
soybean; [7]
  Plant response rating, Soybean: 3
soybean; [9]
  Soybean plant response rating: 0
soybean; [10]
  Soybean plant response rating: 0
soybean; [11]
  Plant response rating, Soybean: 0
crabgrass; [5]
  Crabgrass plant response rating: 0
crabgrass; [6]
  Plant response rating, Crabgrass: 0
crabgrass; [7]
  Plant response rating, Crabgrass: 1
crabgrass; [8]
  Crabgrass plant response rating: 0
crabgrass; [9]
  Crabgrass plant response rating: 0
crabgrass; [10]
  Crabgrass plant response rating: 6
crabgrass; [11]
  Plant response rating, Crabgrass: 8
velvetleaf; [5]
  Velvetleaf plant response rating: 0
velvetleaf; [6]
  Plant response rating, Velvetleaf: 0
velvetleaf; [7]
  Plant response rating, Velvetleaf: 0
velvetleaf; [9]
  Velvetleaf plant response rating: 0
velvetleaf; [10]
  Velvetleaf plant response rating: 0
velvetleaf; [11]
  Plant response rating, Velvetleaf: 0
morningglory; [5]
  Morningglory plant response rating: 0
morningglory; [6]
  Plant response rating, Morningglory: 2
morningglory; [7]
  Plant response rating, Morningglory: 2
morningglory; [9]
  Morningglory plant response rating: 0
morningglory; [10]
  Morningglory plant response rating: 0
morningglory; [11]
  Plant response rating, Morningglory: 0
Sugar beet; [5]
  Sugarbeets plant response rating: 0
Sugar beet; [6]
  Plant response rating, Sugarbeets: 0
Sugar beet; [7]
  Plant response rating, Sugarbeets: 0
Sugar beet; [9]
  Sugarbeets plant response rating: 0
Sugar beet; [10]
  Sugarbeets plant response rating: 0
Sugar beet; [11]
  Plant response rating, Sugarbeets: 0
wheat; [5]
  Wheat plant response rating: 0
wheat; [6]
  Plant response rating, Wheat: 0
wheat; [7]
  Plant response rating, Wheat: 0
wheat; [9]
  Wheat plant response rating: 0
wheat; [10]
  Wheat plant response rating: 0
wheat; [11]
  Plant response rating, Wheat: 0
Smallflower flatsedge; [1]
  S. Flatsedge plant response rating: 0
Smallflower flatsedge; [2]
  Plant response rating, S. Flatsedge (0 to 10 scale, 0 is no effect, 10 is complete control): 0
Smallflower flatsedge; [3]
  S. Flatsedge plant response rating (0 to 10 scale, 0 is no effect, 10 is complete control): 0
Smallflower flatsedge; [4]
  S. Flatsedge plant response rating: 0
Surinam grass; [5]
  B. signalgrass plant response rating: 0
Surinam grass; [6]
  Plant response rating, B. signalgrass: 0
Surinam grass; [7]
  Plant response rating, B. signalgrass: 0
Surinam grass; [8]
  B. signalgrass plant response rating: 0
Surinam grass; [9]
  B. signalgrass plant response rating: 0
Surinam grass; [10]
  B. signalgrass plant response rating: 0
Surinam grass; [11]
  Plant response rating, B. signalgrass: 0
Purple nutsedge; [5]
  Nutsedge plant response rating: 0
Purple nutsedge; [6]
  Plant response rating, Nutsedge: 0
Purple nutsedge; [7]
  Plant response rating, Nutsedge: 0
Purple nutsedge; [10]
  Nutsedge plant response rating: 0
Purple nutsedge; [11]
  Plant response rating, Nutsedge: 0
pigweed; [5]
  Redroot pigweed plant response rating: 0
pigweed; [6]
  Plant response rating, Redroot pigweed: 0
pigweed; [7]
  Plant response rating, Redroot pigweed: 0
pigweed; [9]
  Redroot pigweed plant response rating: 0
pigweed; [10]
  Redroot pigweed plant response rating: 0
pigweed; [11]
  Plant response rating, Redroot pigweed: 0
corn; [5]
  Corn plant response rating: 0
corn; [6]
  Plant response rating, Corn: 0
corn; [7]
  Plant response rating, Corn: 0
corn; [8]
  Corn plant response rating: 0
corn; [9]
  Corn plant response rating: 0
corn; [10]
  Corn plant response rating: 0
corn; [11]
  Plant response rating, Corn: 0
rape; [5]
  Rape plant response rating: 0
rape; [6]
  Plant response rating, Rape: 0
rape; [7]
  Plant response rating, Rape: 0
rape; [9]
  Rape plant response rating: 0
rape; [10]
  Rape plant response rating: 0
rape; [11]
  Plant response rating, Rape: 0
Wild oat; [5]
  Wild oats plant response rating: 0
Wild oat; [6]
  Plant response rating, Wild oats: 0
Wild oat; [7]
  Plant response rating, Wild oats: 0
Wild oat; [9]
  Wild oats plant response rating: 0
Wild oat; [10]
  Wild oats plant response rating: 0
Wild oat; [11]
  Plant response rating, Wild oats: 0
cocklebur; [5]
  Cocklebur plant response rating: 0
cocklebur; [6]
  Plant response rating, Cocklebur: 0
cocklebur; [7]
  Plant response rating, Cocklebur: 0
cocklebur; [8]
  Cocklebur plant response rating: 0
cocklebur; [9]
  Cocklebur plant response rating: 0
cocklebur; [10]
  Cocklebur plant response rating: 0
cocklebur; [11]
  Plant response rating, Cocklebur: 0
bamyardgrass; [1]
  Barnyardgrass plant response rating: 0
bamyardgrass; [2]
  Plant response rating, Barnyardgrass (0 to 10 scale, 0 is no effect, 10 is complete control): 0
bamyardgrass; [3]
  Barnyardgrass plant response rating (0 to 10 scale, 0 is no effect, 10 is complete control): 0
bamyardgrass; [4]
  Barnyardgrass plant response rating: 0
blackgrass; [5]
  Blackgrass plant response rating: 0
blackgrass; [6]
  Plant response rating, Blackgrass: 0
blackgrass; [7]
  Plant response rating, Blackgrass: 0
blackgrass; [8]
  Blackgrass plant response rating: 0
blackgrass; [9]
  Blackgrass plant response rating: 0
blackgrass; [10]
  Blackgrass plant response rating: 0
blackgrass; [11]
  Plant response rating, Blackgrass: 3
rice; [1]
  Rice plant response rating: 0
rice; [2]
  Plant response rating, Rice (0 to 10 scale, 0 is no effect, 10 is complete control): 0
rice; [3]
  Rice plant response rating (0 to 10 scale, 0 is no effect, 10 is complete control): 0
rice; [4]
  Rice plant response rating: 0
